Assay results published in patent US9040713B2, “Methods of managing blood sugar levels and compositions related thereto” (EMORY UNIVERSITY, priority 2010, dated 2015).

Legend:
IR = IR (Mus musculus, UniProt P15208); assay: IR signaling in differentiated 3T3-L1 adipocytes (immunoblotting); type: cell-based; design: endogenous in cells; host or cells: differentiated 3T3-L1 adipocytes; conditions: for IR phosphorylation: 5 nM; for Akt and ERK phosphorylation after IR knockdown / ERK phosphorylation after IR knockdown: siRNA against IR; for Akt and ERK phosphorylation after IR knockdown: 5 μM 4524-E7 or insulin 100 nM; for ERK phosphorylation after IR knockdown: insulin 100 nM 15 min or DDN 5 μM 30 min
Experimental: Insulin signaling in the cell lysates were tested by immunoblotting. (B) DDN stimulates glucose uptake. […] [3H]2-deoxyglucose was then added, and the cells were further incubated for 10 min. [3H]2-deoxyglucose uptake by adipocytes was measured by scintillation counting (*: P<0.05 **: P<0.01 vs control, Student's t-test, n=3). (C) DDN synergizes insulin's signaling. […] Cell lysates were then prepared for Western blot using specific antibodies as indicated. […] 3H-2-deoxyglucose was then added, and the cells were further incubated for 10 min. 3H-2-deoxyglucose uptake by adipocytes was measured by scintillation counting (*: P<0.05; **: P<0.01, Student's t-test, n=3). (E) IR is necessary for DDN to induce ERK phosphorylation. Differentiated 3T3-L1 adipocytes were transfected with control siRNA or siRNA against IR. […] Cell lysates were analyzed by Western blot. (F) The glucose uptake induced by DDN in p85α knockout MEF cells. […] The uptake of 3H-2-deoxyglucose was monitored by liquid scintillation counting (*: P<0.05; **: P<0.01 vs control, Student's t-test, n=3).
(A) 4524-E7 activates IR phosphorylation and its downstream signaling in 3T3-L1 adipocytes. […] The cells were lysed, and immunoprecipitated with PY20, and followed by Western blot using specific antibodies. (B) 4524-E7 stimulates glucose uptake in 3T3-L1 adipocytes. […] [3H]2-deoxyglucose was added, and the cells were further incubated for 10 min. The amount of [3H]2-deoxyglucose taken by adipocytes was measured. (C) 4524-E7 inhibits fatty acid oxidation. […] Results were normalized to DMSO-treated cells and expressed as mean±S.E.M. (*: P<0.05; **:P<0.01, Student's t-test, n=3). (D) IR knockdown in adipocytes decreases IR signaling by 4524-E7. […] Cells lysates were collected and analyzed by Western blot. (E) The glucose uptake induced by 4524-E7 in p85α knockout MEF cells. […] The uptaken [3H] 2-deoxyglucose was monitored by liquid scintillation counter. Results were expressed as mean±S.E.M. (*: P<0.05; **:P<0.01, Student's t-test, n=3). […]

db/db mice = assay: Blood glucose level test in db/db mice; type: in vivo, mouse; conditions: for duration of blood glucose lowering effect: DDN 5 mg/kg oral, insulin 1 U/kg i.p.
Experimental: Three-month-old mice were starved for 12 h and then orally administrated with vehicle (0.5% methylcellulose) or DDN (5 mg/kg). Cell lysates were prepared from liver and muscle tissues collected at 1 and 2 h after drug administration and analyzed by immunoprecipitation and immunoblotting. […] Three-month-old mice were starved for 12 h and then orally administrated with vehicle (0.5% methylcellulose) or DDN (5 mg/kg). Cell lysates were prepared from liver and muscle tissues collected at 1 and 2 h after drug administration and analyzed by immunoprecipitation and immunoblotting. (C) Hypoglycemic function of DDN in db/db mice. The animals were starved for 12 h and then orally injected with vehicle (0.5% methylcellulose) or DDN (5 mg/kg). […] Blood glucose was monitored before and after drug administration at 1-hour intervals (*: P<0.05, **: P<0.01, n=5, Two-way ANOVA vs vehicle). (D) DDN improves the glucose tolerance in ob/ob mice. The animals were starved for 12 h and then orally dosed with vehicle (0.5% methylcellulose) or DDN (5 mg/kg). […] A bonus of glucose (2 gm/kg) was injected intraperitoneally 1 hour later. Blood glucose was measured at 30-min intervals (*: P<0.05, **:P<0.01, n=5, Two-way ANOVA vs vehicle control).
(A) 4524-E7 provokes IR phosphorylation in various tissues of mice. Three-month-old C57BL/6J mice were starved for 12 h and then dosed with vehicle (0.5% methylcellulose) or 4524-E7 (20 mg/kg). Cell lysates from liver, muscle, and WAT were prepared at 3, 4, and 5 h after drug administration and analyzed by immunoblotting. (B) Basal and insulin-stimulated hepatic glucose production rates were measured by hyperinsulinemic-euglycemic clamp. […] (C) Hypoglycemic effect of 4524-E7 in C57BL/6J mice. C57BL/6J mice were starved for 12 h and then orally administrated with vehicle (0.5% methylcellulose) or 4524-E7 (5 mg/kg). Blood glucose was monitored at different time points as indicated (n=8, *: P<0.05, two-way ANOVA). (D) Hypoglycemic effect in db/db mice. db/db mice were starved for 12 h and then orally injected with vehicle (0.5% methylcellulose) or 4524-E7 (5 mg/kg). Blood glucose was monitored at different time points as indicated (n=5, *: P<0.05, two-way ANOVA). (E) Glucose tolerance test in ob/ob mice. The mice were starved for 12 hours and then orally administrated with vehicle or 4524-E7 (5 mg/kg). A bonus of glucose (2 gm/kg) was injected intraperitoneally 1 hour later. Blood glucose was then measured at 30 min intervals (n=13, *: P<0.05; **: P<0.01, two-way ANOVA).
After a 12 h fasting, C57B5L/6J and db/db mice were bled from the tail vein for a baseline measurement with a glucometer (Accu-Chek; Roche Diagnostics, Indianapolis, Ind.). […] Blood glucose levels were measured at hourly intervals over 5 h.

IR, sequence (P15208 28-1372): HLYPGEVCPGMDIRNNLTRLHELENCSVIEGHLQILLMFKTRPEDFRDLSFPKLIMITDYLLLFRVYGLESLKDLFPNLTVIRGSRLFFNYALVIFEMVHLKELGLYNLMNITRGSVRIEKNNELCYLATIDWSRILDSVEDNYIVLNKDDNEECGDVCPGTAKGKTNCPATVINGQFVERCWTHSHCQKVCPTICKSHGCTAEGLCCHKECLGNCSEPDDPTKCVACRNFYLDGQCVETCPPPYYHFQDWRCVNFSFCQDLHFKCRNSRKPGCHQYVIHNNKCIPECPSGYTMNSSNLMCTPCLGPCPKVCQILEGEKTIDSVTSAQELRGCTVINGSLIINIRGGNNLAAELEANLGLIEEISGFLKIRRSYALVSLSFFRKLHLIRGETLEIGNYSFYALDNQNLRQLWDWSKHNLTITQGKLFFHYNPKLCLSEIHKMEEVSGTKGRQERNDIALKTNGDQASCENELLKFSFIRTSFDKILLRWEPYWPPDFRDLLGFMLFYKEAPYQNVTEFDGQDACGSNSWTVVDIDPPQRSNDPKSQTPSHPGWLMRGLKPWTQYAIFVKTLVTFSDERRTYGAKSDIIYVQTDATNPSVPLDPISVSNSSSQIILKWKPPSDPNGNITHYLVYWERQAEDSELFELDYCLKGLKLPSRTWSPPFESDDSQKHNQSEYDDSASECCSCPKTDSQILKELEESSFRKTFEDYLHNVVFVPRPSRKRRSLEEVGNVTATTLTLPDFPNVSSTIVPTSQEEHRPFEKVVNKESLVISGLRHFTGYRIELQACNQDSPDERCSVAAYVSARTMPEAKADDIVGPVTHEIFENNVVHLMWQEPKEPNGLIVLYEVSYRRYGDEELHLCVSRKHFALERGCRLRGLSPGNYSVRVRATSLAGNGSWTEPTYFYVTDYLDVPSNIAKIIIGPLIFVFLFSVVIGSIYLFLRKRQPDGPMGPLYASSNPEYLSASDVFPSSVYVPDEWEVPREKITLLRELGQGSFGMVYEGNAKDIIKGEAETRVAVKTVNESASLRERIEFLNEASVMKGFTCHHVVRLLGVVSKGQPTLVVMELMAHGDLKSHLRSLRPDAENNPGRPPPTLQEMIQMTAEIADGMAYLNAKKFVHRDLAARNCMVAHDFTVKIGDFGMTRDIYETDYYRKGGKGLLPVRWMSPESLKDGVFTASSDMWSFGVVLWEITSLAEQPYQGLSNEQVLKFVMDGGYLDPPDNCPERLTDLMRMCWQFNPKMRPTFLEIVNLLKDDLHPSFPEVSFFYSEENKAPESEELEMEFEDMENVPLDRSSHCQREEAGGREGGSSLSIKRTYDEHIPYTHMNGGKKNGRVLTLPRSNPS

IR phosphorylation (IR; alone) | Akt and ERK phosphorylation after IR knockdown (IR) | ERK phosphorylation after IR knockdown (IR) | activation of endogenous IR (IR; different concentrations, 15 min, alone) | Compound | duration of blood glucose lowering effect (db/db mice) | IR, Akt and Erk1/2 phosphorylation in combination with insulin (IR; 4524-E7 plus 10 nM insulin) | blood glucose (db/db mice; 5 mg/kg oral, one hour after administration) | IR phosphorylation in combination with insulin (IR; 5 nM DDN plus 5 nM insulin) | IR and Akt activation (IR; DDN 0.1, 0.25, 0.5 μM, 30 min) | blood glucose as compared to vehicle control (db/db mice; 5 mg/kg oral, one h after administration)
able to trigger IR phosphorylation | also reduced | reduced when IR was depleted |  | insulin: insulin, used as positive control | 2 h |  |  |  |  | 
 | also reduced |  | could activate the endogenous IR | O=C1c2ccccc2C(=O)C2SC(Nc3ccc(Cl)cc3)=NC12 (centres unmarked) [4524-E7, 2-((4-chlorophenyl)amino)naphtho[2,3-d]thiazole-4,9(3aH,9aH)-dione] |  | much more robust IR, Akt and Erk1/2 phosphorylation than insulin or 4524-E7 alone | about 50 % of the initial value |  |  | 
did not induce any IR activation |  | reduced when IR was depleted |  | CC(=O)Oc1ccc(OC(C)=O)c2c1C(=O)C(Cl)=C(Cl)C2=O [DDN, 5,8-diacetyloxy-2,3-dichloro-1,4-naphthoquinone] | sustain till the end of the experiment |  |  | higher than those observed when insulin or DDN was administrated separately | elicited a dose-dependent IR and Akt activation | lower blood glucose was found in db/db mice
